In patent US20240287074A1, “SALTS AND CRYSTALS” (Kinoxis Therapeutics Pty Ltd, priority 2020, published 2024):
Counter-ions that a name gives are not always drawn. Like-named read-outs stand apart in the source and are kept apart here.

What was measured:
[1] = Solvent solubility screen of phosphate salt; format: physicochemical; settings: for solubility: read-out: Approx. Solubility
Experimental: Selected solvent was added in 50 μL aliquots to approximately 10 mg of poorly crystalline phosphate pattern (obtained from above lyophilisation). Between each addition, the mixture was checked for dissolution and where no dissolution was apparent, the mixture was heated to about 40° C. and checked again. This procedure was continued until dissolution was observed or until 2 mL of solvent had been added. Samples in which dissolution was observed were stored uncapped at ambient temperature to allow evaporation. Samples in which dissolution was not observed were filtered via centrifugation. All observed solids were analyzed by XRPD. The solvent systems used during the solvent solubility screen are detailed in Table 3.

[2] = Storage of phosphate pattern 2 at 40° C./75% RH; format: physicochemical; settings: about 16 hours
Experimental: The samples were analyzed by XRPD.

Cn1ncc2c1Nc1ccccc1NC2 [phosphate pattern 2, phosphoric acid addition salt of 1-methyl-1,4,5,10-tetrahydropyrazolo[3,4-b][1,5]benzodiazepine]
solubility ([1]; 1,4-dioxane, 40 °C, organic solvent or mixture, thermodynamic from solid, 1,4-Dioxane): < 5000 µg/mL | solubility ([1]; 2-Butanol, 40 °C, organic solvent or mixture, thermodynamic from solid, 2-Butanol): < 5000 µg/mL | solubility ([1]; 2-Ethoxyethanol, 40 °C, organic solvent or mixture, thermodynamic from solid, 2-Ethoxyethanol): < 5000 µg/mL | solubility ([1]; 2-methyl tetrahydrofuran, 40 °C, organic solvent or mixture, thermodynamic from solid, 2-Methyl tetrahydrofuran): < 5000 µg/mL | solubility ([1]; 2-propanol, 40 °C, organic solvent or mixture, thermodynamic from solid, 2-Propanol): < 5000 µg/mL | solubility ([1]; 80% 2-propanol/20% water (% v/v), 40 °C, organic solvent or mixture, thermodynamic from solid, 80% 2-Propanol/20% water (% v/v)): < 5000 µg/mL | solubility ([1]; 80% acetone/20% water (% v/v), 40 °C, organic solvent or mixture, thermodynamic from solid, 80% Acetone/20% water (% v/v)): < 5000 µg/mL | solubility ([1]; 80% acetonitrile/20% water (% v/v), 40 °C, organic solvent or mixture, thermodynamic from solid, 80% Acetonitrile/20% water (% v/v)): < 5000 µg/mL | solubility ([1]; 80% methanol/20% water (% v/v), 40 °C, organic solvent or mixture, thermodynamic from solid, 80% Methanol/20% water (% v/v)): < 5000 µg/mL | Approx. Solubility ([1]; N-Methyl pyrrolidone): 17000 µg/mL | solubility ([1]; N-methyl pyrrolidone, organic solvent or mixture, thermodynamic from solid, N-Methyl pyrrolidone): 10000 to 100000 µg/mL | Approx. Solubility ([1]; Water): 17000 µg/mL | solubility ([1]; acetone, 40 °C, organic solvent or mixture, thermodynamic from solid, Acetone): < 5000 µg/mL | solubility ([1]; acetonitrile, 40 °C, organic solvent or mixture, thermodynamic from solid, Acetonitrile): < 5000 µg/mL | solubility ([1]; anisole, 40 °C, organic solvent or mixture, thermodynamic from solid, Anisole): < 5000 µg/mL | solubility ([1]; chloroform, 40 °C, organic solvent or mixture, thermodynamic from solid, Chloroform): < 5000 µg/mL | solubility ([1]; ethanol, 40 °C, organic solvent or mixture, thermodynamic from solid, Ethanol): < 5000 µg/mL | solubility ([1]; ethanol/water Aw 0.4, 40 °C, organic solvent or mixture, thermodynamic from solid, Ethanol/water Aw 0.4): < 5000 µg/mL | solubility ([1]; ethanol/water Aw 0.5, 40 °C, organic solvent or mixture, thermodynamic from solid, Ethanol/water Aw 0.5): < 5000 µg/mL | solubility ([1]; ethanol/water Aw 0.6, 40 °C, organic solvent or mixture, thermodynamic from solid, Ethanol/water Aw 0.6): < 5000 µg/mL | solubility ([1]; ethanol/water Aw 0.7, 40 °C, organic solvent or mixture, thermodynamic from solid, Ethanol/water Aw 0.7): < 5000 µg/mL | solubility ([1]; ethanol/water Aw 0.8, 40 °C, organic solvent or mixture, thermodynamic from solid, Ethanol/water Aw 0.8): < 5000 µg/mL | solubility ([1]; ethyl acetate, 40 °C, organic solvent or mixture, thermodynamic from solid, Ethyl acetate): < 5000 µg/mL | solubility ([1]; ethyl formate, 40 °C, organic solvent or mixture, thermodynamic from solid, Ethyl formate): < 5000 µg/mL | solubility ([1]; ethyleneglycol, 40 °C, organic solvent or mixture, thermodynamic from solid, Ethyleneglycol): < 5000 µg/mL | solubility ([1]; isopropyl acetate, 40 °C, organic solvent or mixture, thermodynamic from solid, Isopropyl acetate): < 5000 µg/mL | solubility ([1]; methanol, 40 °C, organic solvent or mixture, thermodynamic from solid, Methanol): < 5000 µg/mL | solubility ([1]; methylethyl ketone, organic solvent or mixture, thermodynamic from solid, Methylethyl ketone): < 5000 µg/mL | solubility ([1]; methylisobutyl ketone, organic solvent or mixture, thermodynamic from solid, Methylisobutyl ketone): < 5000 µg/mL | solubility ([1]; nitromethane, organic solvent or mixture, thermodynamic from solid, Nitromethane): < 5000 µg/mL | solubility ([1]; tert-butylmethyl ether, organic solvent or mixture, thermodynamic from solid, tert-Butylmethyl ether): < 5000 µg/mL | solubility ([1]; tetrahydrofuran, organic solvent or mixture, thermodynamic from solid, Tetrahydrofuran): < 5000 µg/mL | solubility ([1]; water, thermodynamic from solid, Water): 10000 to 100000 µg/mL | form by XRPD upon storage at 40° C./75% RH [2]: completely converted to form 1
